From US6413958B2, “4-hydroxy-1,8-naphthyridine-3-carboxamides as antiviral agents” (Pharmacia & Upjohn Company, priority 2000, dated 2002) come the findings set out here.

For one data set, the target named is T1, HCMV polymerase (Human cytomegalovirus, UniProt P08546).
T1 construct: made in house; host or cells: recombinant baculovirus-infected SF-9 cells
Briefly: HCMV polymerase assay (scintillation proximity assay, modified version). Format: biochemical. The settings on record: modified HCMV polymerase SPA; for IC50: compounds diluted in 100% DMSO, 4.5 mM DTT. Here is the method: The HCMV polymerase assay is performed using a scintillation proximity assay (SPA) as described in several references, such as N. D. Cook, et al., Pharmaceutical Manufacturing International, pages 49-53 (1992); K. Takeuchi, Laboratory Practice, September issue (1992); U.S. Pat. No. 4,568,649 (1986); which are incorporated by reference herein. Reactions are performed in 96-well plates. The assay is conducted in 100 μl volume with 5.4 mM HEPES (pH 7.5), 11.7 mM KCl, 4.5 mM MgCl2, 0.36 mg/ml BSA, and 90 nM ^3H-dTTP. Assays are run with and without CHAPS, (3-[(3-cholamidopropyl)-dimethylammonio]-1-propane-sulfonate) at a final concentration of 2 mM. HCMV polymerase is diluted in enzyme dilution buffer containing 50% glycerol, 250 mM NaCl, 10 mM HEPES (pH 7.5), 100 μg/ml BSA, and 0.01% sodium azide. The HCMV polymerase, which is expressed in recombinant baculovirus-infected SF-9 cells and purified according to literature procedures, is added at 10% (or 10 μl) of the final reaction volume, i.e., 100 μl. Compounds are diluted in 50% DMSO and 10 μl are added to each well. Control wells contain an equivalent concentration of DMSO. Unless noted otherwise, reactions are initiated via the addition of 6 nM biotinylated poly(dA)-oligo(dT) template/primer to reaction mixtures containing the enzyme, substrate, and compounds of interest. Plates are incubated in a 25° C. or 37° C. H2O bath and terminated via the addition of 40 μl/reaction of 0.5 M EDTA (pH 8) per well. Reactions are terminated within the time-frame during which substrate incorporation is linear and varied depending upon the enzyme and conditions used, i.e., 30 min. for HCMV polymerase. Ten μl of streptavidin-SPA beads (20 mg/ml in PBS/10% glycerol) are added following termination of the reaction. Plates are incubated 10 min. at 37° C., then equilibrated to room temperature, and counted on a Packard Topcount. Linear regressions are performed and IC50's are calculated using computer software.
A modified version of the above HCMV polymerase assay is performed as described above, but with the following changes: Compounds are diluted in 100% DMSO until final dilution into assay buffer. In the previous assay, compounds are diluted in 50% DMSO. 4.5 mM dithiotherotol (DTT) is added to the polymerase buffer. […] All results are listed as Polymerase IC50 (μM) values. In Table 1, the term “nd” refers to activity data not determined.
A general note: SPA uses beads or plates that emit light when radiolabelled molecules are held near them.

T1 sequence (P08546 whole entry): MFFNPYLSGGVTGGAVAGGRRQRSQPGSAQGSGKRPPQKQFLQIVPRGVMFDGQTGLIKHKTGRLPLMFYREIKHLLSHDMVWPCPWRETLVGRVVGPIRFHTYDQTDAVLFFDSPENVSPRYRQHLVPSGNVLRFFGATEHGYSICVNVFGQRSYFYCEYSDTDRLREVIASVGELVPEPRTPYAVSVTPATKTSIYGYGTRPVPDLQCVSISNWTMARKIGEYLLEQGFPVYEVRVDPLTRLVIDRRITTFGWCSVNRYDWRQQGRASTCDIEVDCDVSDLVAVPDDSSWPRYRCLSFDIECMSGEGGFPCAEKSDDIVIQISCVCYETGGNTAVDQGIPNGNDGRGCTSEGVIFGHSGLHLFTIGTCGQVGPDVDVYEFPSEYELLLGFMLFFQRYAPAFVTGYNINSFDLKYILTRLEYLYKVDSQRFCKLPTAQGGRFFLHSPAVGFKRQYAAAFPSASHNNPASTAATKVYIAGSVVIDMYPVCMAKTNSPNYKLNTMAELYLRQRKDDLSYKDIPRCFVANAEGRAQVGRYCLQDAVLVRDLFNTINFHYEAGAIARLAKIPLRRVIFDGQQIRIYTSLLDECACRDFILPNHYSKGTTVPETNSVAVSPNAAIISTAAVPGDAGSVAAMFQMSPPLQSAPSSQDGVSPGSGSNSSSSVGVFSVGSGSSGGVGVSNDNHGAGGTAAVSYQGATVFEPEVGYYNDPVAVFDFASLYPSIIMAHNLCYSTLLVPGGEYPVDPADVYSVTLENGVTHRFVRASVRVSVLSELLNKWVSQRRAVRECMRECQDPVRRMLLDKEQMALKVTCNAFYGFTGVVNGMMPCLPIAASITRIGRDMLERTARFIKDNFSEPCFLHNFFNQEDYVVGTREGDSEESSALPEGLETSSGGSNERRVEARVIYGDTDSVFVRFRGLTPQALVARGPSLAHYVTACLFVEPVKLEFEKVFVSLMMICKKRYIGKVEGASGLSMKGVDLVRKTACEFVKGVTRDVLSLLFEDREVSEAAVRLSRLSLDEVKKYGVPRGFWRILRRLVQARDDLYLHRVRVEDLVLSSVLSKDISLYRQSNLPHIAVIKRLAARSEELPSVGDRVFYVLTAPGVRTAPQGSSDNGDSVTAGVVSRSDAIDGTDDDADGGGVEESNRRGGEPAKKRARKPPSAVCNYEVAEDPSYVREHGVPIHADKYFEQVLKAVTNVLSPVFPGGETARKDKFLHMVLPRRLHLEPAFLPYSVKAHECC

Regarding `Cc1ccc2c(O)c(C(=O)NCc3ccc(Cl)cc3)cnc2n1` [Example 1, N-(4-chlorobenzyl)-4-hydroxy-7-methyl[1,8]naphthyridine-3-carboxamide], the melting point (usually the temperature, or range, at which the solid turns liquid) was 280 to 285 °C (dec.). On HCMV polymerase, inhibition was half-maximal at 26 µM (IC50).
The compound `Cc1nc2ncc(C(=O)NCc3ccc(Cl)cc3)c(O)c2cc1Br` [Example 2, 6-bromo-N-(4-chlorobenzyl)-4-hydroxy-7-methyl[1,8]naphthyridine-3-carboxamide] returned a melting point of 269 to 270 °C. This compound had an HCMV polymerase inhibition on HCMV polymerase (at 20 μm) of 39% inhibition.
On to `Cc1nc2ncc(C(=O)NCc3ccc(Cl)cc3)c(O)c2cc1C#CCO` [Example 3, N-(4-chlorobenzyl)-4-hydroxy-6-(3-hydroxy-1-propynyl)-7-methyl[1,8]naphthyridine-3-carboxamide], for which the melting point is 279 to 281 °C (dec.). In addition, the IC50 (in general, the midpoint of a concentration-inhibition curve) against HCMV polymerase came out at 2.1 µM.
On the same counts, the results for `Cc1nc2ncc(C(=O)NCc3ccc(Cl)cc3)c(O)c2cc1I` [Example 4, N-(4-chlorobenzyl)-4-hydroxy-6-iodo-7-methyl[1,8]naphthyridine-3-carboxamide] are 276 to 277 °C and 13.7 µM.
On the same counts, the results for `COC(=O)c1cc2c(O)c(C(=O)NCc3ccc(Cl)cc3)cnc2nc1C` [Example 5, Methyl 6-{[(4-chlorobenzyl)amino]carbonyl}-5-hydroxy-2-methyl[1,8]naphthyridine-3-carboxylate] are 265 to 267 °C and 8.5 µM.
